Test results: patent US4471131A, “Novel silyl esters of N-phosphonomethylglycine” (Monsanto Company, priority 1983, dated 1984)

What was measured:
Assay in all cases: post-emergence herbicidal activity, greenhouse
Type in all cases: in vivo
Velvetleaf = settings: Table III, 4 WAT, formulated in anhydrous tetrahydrofuran
Excerpt: (§1) A good grade of top soil is placed in aluminum pans having holes in the bottom and compacted to a depth of 0.95 to 1.27 cm. from the top of the pan. A predetermined number of seeds of each of several dicotyledonous and moncotyledonous annual plant species and/or vegetative propagules for the perennial plant species were placed on the soil and pressed into the soil surface. The seeds and/or vegetative propagules are covered with soil and leveled. The pans are then placed on a sand bench in the greenhouse and watered from below as needed. After the plants reach the desired age (two to three weeks), each pan, except for the control pans, is removed individually to a spraying chamber and sprayed by means of an atomizer at the rates noted. In the spray solution is an amount of an emulsifying agent mixture to give a spray solution or suspension which contains about 0.4% by weight of the emulsifier. The spray solution or suspension contains a sufficient amount of the candidate chemical in order to give application rates corresponding to those set forth in the tables. The pans were returned to the greenhouse and watered as before and the injury to the plants as compared to the control is observed at approximately two and four weeks and the results recorded. In the tables, WAT means "weeks after treatment."
(§2) The post-emergent herbicidal activity index used in Tables II and III is as follows:
(§3) The plant species utilized in these tests are identified by letter in accordance with the following legend: […]

Cocklebur = settings: formulated in anhydrous tetrahydrofuran
Excerpt: as §1, §2, §3

Rice = settings: Table III, formulated in anhydrous tetrahydrofuran
Excerpt: as §1, §2, §3

Common Lambsquarters = settings: formulated in anhydrous tetrahydrofuran
Excerpt: as §1, §2, §3

Pennsylvania Smartweed = settings: formulated in anhydrous tetrahydrofuran
Excerpt: as §1, §2, §3

Panicum Spp = settings: Table III, formulated in anhydrous tetrahydrofuran
Excerpt: as §1, §2, §3

Downy Brome = settings: formulated in anhydrous tetrahydrofuran
Excerpt: as §1, §2, §3

Quackgrass = settings: Table II, formulated in anhydrous tetrahydrofuran
Excerpt: as §1, §2, §3

Soybean = settings: Table III, formulated in anhydrous tetrahydrofuran
Excerpt: as §1, §2, §3

CCCCOC(=O)CNCP(=O)(O)O[Si](C)(C)C(C)(C)C [Ex. 3, Glycine, N-((([(1,1-Dimethylethyl)Dimethylsilyl]oxy)Hydroxyphosphinyl)Methyl)-, Butyl Ester]
Plant Response Index (C) (Velvetleaf; 5.6 kg/h): 4 (100% inhibition) | Plant Response Index (C) (Velvetleaf; .28 kg/h): 2 (50-74% inhibition) | Plant Response Index (B) (Cocklebur; Table II, 2 WAT, 5.6 kg/h): 1 (25-49% inhibition) | Plant Response Index (B) (Cocklebur; Table II, 2 WAT, 11.2 kg/h): 1 (25-49% inhibition) | Plant Response Index (B) (Cocklebur; Table II, 4 WAT, 5.6 kg/h): 1 (25-49% inhibition) | Plant Response Index (B) (Cocklebur; Table II, 4 WAT, 11.2 kg/h): 2 (50-74% inhibition) | Plant Response Index (B) (Cocklebur; Table III, 2 WAT, 1.1 kg/h): 2 (50-74% inhibition) | Plant Response Index (B) (Cocklebur; Table III, 2 WAT, 5.6 kg/h): 2 (50-74% inhibition) | Plant Response Index (B) (Cocklebur; Table III, 2 WAT, .28 kg/h): 2 (50-74% inhibition) | Plant Response Index (B) (Cocklebur; Table III, 4 WAT, 1.1 kg/h): 1 (25-49% inhibition) | Plant Response Index (B) (Cocklebur; Table III, 4 WAT, 5.6 kg/h): 3 (75-99% inhibition) | Plant Response Index (B) (Cocklebur; Table III, 4 WAT, .28 kg/h): 1 (25-49% inhibition) | Plant Response Index (O) (Rice; 2 WAT, 1.1 kg/h): 0 (0-24% inhibition) | Plant Response Index (O) (Rice; 2 WAT, 5.6 kg/h): 1 (25-49% inhibition) | Plant Response Index (O) (Rice; 2 WAT, .28 kg/h): 1 (25-49% inhibition) | Plant Response Index (O) (Rice; 4 WAT, 1.1 kg/h): 1 (25-49% inhibition) | Plant Response Index (O) (Rice; 4 WAT, 5.6 kg/h): 2 (50-74% inhibition) | Plant Response Index (O) (Rice; 4 WAT, .28 kg/h): 0 (0-24% inhibition) | Plant Response Index (E) (Common Lambsquarters; Table II, 2 WAT, 5.6 kg/h): 3 (75-99% inhibition) | Plant Response Index (E) (Common Lambsquarters; Table II, 2 WAT, 11.2 kg/h): 3 (75-99% inhibition) | Plant Response Index (E) (Common Lambsquarters; Table II, 4 WAT, 5.6 kg/h): 4 (100% inhibition) | Plant Response Index (E) (Common Lambsquarters; Table II, 4 WAT, 11.2 kg/h): 4 (100% inhibition) | Plant Response Index (E) (Common Lambsquarters; Table III, 2 WAT, 1.1 kg/h): 3 (75-99% inhibition) | Plant Response Index (E) (Common Lambsquarters; Table III, 2 WAT, 5.6 kg/h): 4 (100% inhibition) | Plant Response Index (E) (Common Lambsquarters; Table III, 2 WAT, .28 kg/h): 3 (75-99% inhibition) | Plant Response Index (E) (Common Lambsquarters; Table III, 4 WAT, 1.1 kg/h): 3 (75-99% inhibition) | Plant Response Index (E) (Common Lambsquarters; Table III, 4 WAT, 5.6 kg/h): 4 (100% inhibition) | Plant Response Index (E) (Common Lambsquarters; Table III, 4 WAT, .28 kg/h): 4 (100% inhibition) | Plant Response Index (F) (Pennsylvania Smartweed; Table II, 2 WAT, 5.6 kg/h): 1 (25-49% inhibition) | Plant Response Index (F) (Pennsylvania Smartweed; Table II, 2 WAT, 11.2 kg/h): 2 (50-74% inhibition) | Plant Response Index (F) (Pennsylvania Smartweed; Table II, 4 WAT, 5.6 kg/h): 1 (25-49% inhibition) | Plant Response Index (F) (Pennsylvania Smartweed; Table II, 4 WAT, 11.2 kg/h): 3 (75-99% inhibition) | Plant Response Index (F) (Pennsylvania Smartweed; Table III, 2 WAT, 1.1 kg/h): 2 (50-74% inhibition) | Plant Response Index (F) (Pennsylvania Smartweed; Table III, 2 WAT, 5.6 kg/h): 3 (75-99% inhibition) | Plant Response Index (F) (Pennsylvania Smartweed; Table III, 2 WAT, .28 kg/h): 2 (50-74% inhibition) | Plant Response Index (F) (Pennsylvania Smartweed; Table III, 4 WAT, 1.1 kg/h): 2 (50-74% inhibition) | Plant Response Index (F) (Pennsylvania Smartweed; Table III, 4 WAT, 5.6 kg/h): 3 (75-99% inhibition) | Plant Response Index (F) (Pennsylvania Smartweed; Table III, 4 WAT, .28 kg/h): 2 (50-74% inhibition) | Plant Response Index (S) (Panicum Spp; 2 WAT, 1.1 kg/h): 1 (25-49% inhibition) | Plant Response Index (S) (Panicum Spp; 2 WAT, 5.6 kg/h): 3 (75-99% inhibition) | Plant Response Index (S) (Panicum Spp; 2 WAT, .28 kg/h): 1 (25-49% inhibition) | Plant Response Index (S) (Panicum Spp; 4 WAT, 1.1 kg/h): 2 (50-74% inhibition) | Plant Response Index (S) (Panicum Spp; 4 WAT, 5.6 kg/h): 3 (75-99% inhibition) | Plant Response Index (S) (Panicum Spp; 4 WAT, .28 kg/h): 1 (25-49% inhibition) | Plant Response Index (J) (Downy Brome; Table II, 2 WAT, 5.6 kg/h): 0 (0-24% inhibition) | Plant Response Index (J) (Downy Brome; Table II, 2 WAT, 11.2 kg/h): 0 (0-24% inhibition) | Plant Response Index (J) (Downy Brome; Table II, 4 WAT, 5.6 kg/h): 1 (25-49% inhibition) | Plant Response Index (J) (Downy Brome; Table II, 4 WAT, 11.2 kg/h): 1 (25-49% inhibition) | Plant Response Index (J) (Downy Brome; Table III, 2 WAT, 1.1 kg/h): 1 (25-49% inhibition) | Plant Response Index (J) (Downy Brome; Table III, 2 WAT, 5.6 kg/h): 1 (25-49% inhibition) | Plant Response Index (J) (Downy Brome; Table III, 2 WAT, .28 kg/h): 1 (25-49% inhibition) | Plant Response Index (J) (Downy Brome; Table III, 4 WAT, 1.1 kg/h): 1 (25-49% inhibition) | Plant Response Index (J) (Downy Brome; Table III, 4 WAT, 5.6 kg/h): 1 (25-49% inhibition) | Plant Response Index (J) (Downy Brome; Table III, 4 WAT, .28 kg/h): 0 (0-24% inhibition) | Plant Response Index (H) (Quackgrass; 2 WAT, 5.6 kg/h): 0 (0-24% inhibition) | Plant Response Index (H) (Quackgrass; 2 WAT, 11.2 kg/h): 3 (75-99% inhibition) | Plant Response Index (H) (Quackgrass; 4 WAT, 5.6 kg/h): 1 (25-49% inhibition) | Plant Response Index (H) (Quackgrass; 4 WAT, 11.2 kg/h): 3 (75-99% inhibition) | Plant Response Index (L) (Soybean; 2 WAT, 1.1 kg/h): 2 (50-74% inhibition) | Plant Response Index (L) (Soybean; 2 WAT, 5.6 kg/h): 2 (50-74% inhibition) | Plant Response Index (L) (Soybean; 2 WAT, .28 kg/h): 1 (25-49% inhibition) | Plant Response Index (L) (Soybean; 4 WAT, 1.1 kg/h): 1 (25-49% inhibition) | Plant Response Index (L) (Soybean; 4 WAT, 5.6 kg/h): 2 (50-74% inhibition) | Plant Response Index (L) (Soybean; 4 WAT, .28 kg/h): 0 (0-24% inhibition)
